# Key:
# ShHTL1 = ShHTL1 (Striga hermonthica, UniProt A0A0M4AV81); experiment: ITC binding to ShHTL1; settings: 3 mM KAR1 into 150 μM protein, 20 °C, means ± SD, n = 3, read-out: dissociation constant (KD) of KAR1 to ShHTL1
# Protocol: Binding analyses of ShHTLs and ShD14 with KAR1. The ITC assays were performed by adding 3 mM KAR1 to 150 μM ShHTL1 (a), ShHTL4 (b), ShHTL7
# ShHTL1 and AtHTL were fitted using the MicroCal origin software with the “one binding site” model.
# AtHTL = target: T1, AtHTL (Arabidopsis thaliana, UniProt Q9SZU7); experiment: ITC binding to AtHTL; settings: 3 mM KAR1 into 150 μM protein, 20 °C
# T1 sequence (Q9SZU7 1-270): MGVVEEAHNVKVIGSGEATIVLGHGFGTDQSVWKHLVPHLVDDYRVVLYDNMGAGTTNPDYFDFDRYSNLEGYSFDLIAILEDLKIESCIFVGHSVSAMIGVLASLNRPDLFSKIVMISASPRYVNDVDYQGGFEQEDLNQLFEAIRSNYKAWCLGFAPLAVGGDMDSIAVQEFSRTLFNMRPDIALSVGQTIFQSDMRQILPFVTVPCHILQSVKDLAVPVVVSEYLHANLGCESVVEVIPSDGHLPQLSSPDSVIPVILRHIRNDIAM
# Protocol: (§1) The binding assays were performed using a MicroCal iTC200 isothermal titration calorimeter (GE Healthcare). Prior to the ITC experiments, concentrated ShD14, ShHTL1, ShHTL4, and ShHTL7 were exchanged into a buffer consisting of 20 mM HEPES (pH 8.0) and 150 mM NaCl to remove dithiothreitol and were then adjusted to a final concentration of 150 μM. The sample cell was filled with protein solution (204 μL). Nineteen consecutive 2.0-μL aliquots of 3 mM KAR1 (3-methyl-2H-furo [2,3-c] pyran-2-one) were injected into a prepared protein solution at 150 s intervals at 20 °C. The first injection volume was 0.4 μL, and the observed thermal peak was excluded from the data analysis. A negative control was obtained by titrating 3 mM KAR1 into the buffer (20 mM HEPES, pH 8.0, 150 mM NaCl) in the same manner. Data fitting was performed in “one set of sites” mode, and KD values were calculated using Origin software provided by MicroCal.
# (§2) Supplementary Figure 3. Binding analyses of ShHTLs and ShD14 with KAR1. The ITC
# (§3) assays were performed by adding 3 mM KAR1 to 150 μM ShHTL1 (a), ShHTL4 (b), ShHTL7
# (§4) (c), ShD14 (d) and AtHTL (e).
# (§5) ShHTL1 and AtHTL were fitted using the MicroCal origin software with the “one binding site”
# (§6) model. The ITC assays titrating KAR1 into ShHTL1 and AtHTL were repeated three times
# (§7) independently (data not shown).
# ShHTL4 = experiment: ITC binding to ShHTL4; design: species or system Striga hermonthica; settings: 3 mM KAR1 into 150 μM protein
# Protocol: as §1, §2, §3, §4, §5, §6, §7
# ShHTL7 = target: T2, ShHTL7 (Striga hermonthica, UniProt A0A0M3PNA2); experiment: ITC binding to ShHTL7; settings: 3 mM KAR1 into 150 μM protein
# T2 sequence (A0A0M3PNA2 1-271): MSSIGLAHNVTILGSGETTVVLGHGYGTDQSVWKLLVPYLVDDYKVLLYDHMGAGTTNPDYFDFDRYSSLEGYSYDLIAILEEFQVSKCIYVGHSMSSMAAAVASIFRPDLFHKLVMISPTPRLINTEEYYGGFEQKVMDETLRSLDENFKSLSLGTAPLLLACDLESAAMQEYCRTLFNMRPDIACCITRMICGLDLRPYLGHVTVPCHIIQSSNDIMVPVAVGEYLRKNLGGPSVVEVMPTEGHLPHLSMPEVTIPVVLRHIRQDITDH
# Protocol: as §1, §2, §3, §4, §5, §6, §7
# ShHTL7 T190F/C194F = ShHTL7 T190F/C194F (Striga hermonthica, UniProt A0A0M3PNA2, C194F/T190F); experiment: ITC binding to ShHTL7 double mutation; settings: 3 mM KAR1 into 150 μM mutant
# Protocol: Supplementary Figure 8. Activity measurements of ShHTL7 mutants. (a-b), Binding analyses of the T190F/C194F double mutation (a) and L124F/T190F/C194F triple mutation (b) of ShHTL7 with KAR1 by ITC (shown in black). The ITC assays were performed by adding 3 mM KAR1 to 150 μM ShHTL7 mutants in the same manner as in Supplementary Figure 3. Results of titrating buffer to 150 μM ShHTL7 mutants are shown in red. The upper panel for each […]
# injection (black squares). (c) YLG hydrolytic activity of ShHTL7 and its mutants. As described
# [1] = test system: ShHTL1-AtMAX2 interaction; settings: Y2H dilution series, 5 μM ligand
# From the text: (§8) Full-length sequences of ShD14, ShHTL1, ShHTL3, ShHTL4, ShHTL7, and AtHTL were cloned into the pGBKT7 vector as bait (Clontech), and the coding regions of ShMAX2 and AtMAX2 were cloned into the pGADT7 vector as prey (Clontech). MAX2 was supposed to be unstable without ASK1. Therefore, AtASK1 was cloned into the N terminus of ShMAX2 and AtMAX2 with a 16-residue linker for co-expression. The bait and prey plasmids were co-transformed into the yeast (Saccharomyces cerevisiae) strain Y2HGold (Clontech) by the lithium acetate-mediated method. The presence of both plasmids was confirmed by growth on SD/-Leu/-Trp (-LT) plates. […] The plates were incubated for 5 days at 30 °C.
# (§9) and AtHTL were detected using an anti-GST antibody, as indicated by the black arrows. (b)
# (§10) 1/10, 1/20, 1/50, 1/100, 1/1000) of transformed yeast cells was plated on control medium (SD/-
# (§11) Leu/-Trp; -LT) and selective medium (SD/-Leu/-Trp/-His/-Ade; -LTHA) in the absence or
# (§12) (1 picture or pasted object on this page, not shown here)
# [2] = test system: ShHTL1–ShMAX2 interaction; settings: Y2H dilution series, 5 μM ligand
# From the text: as §8, §9, §10, §11, §12
# AtHTL–AtMAX2 interaction = AtHTL–AtMAX2 interaction (Arabidopsis thaliana, UniProt Q9SZU7); settings: pull-down, 50 μM ligand, western blotting
# Protocol: as §9, §10, §11, §12
# ShHTL3 and ShMAX2 = experiment: In vitro pull-down ShHTL3-ShMAX2; assay type: binding, Striga hermonthica; settings: 50 μM ligand
# Protocol: Ni-NTA pull-down assays were performed with purified ShMAX2 or AtMAX2 as the bait and […]14, or GST-AtD14 as the prey. The molecular weight of the HTL/D14 proteins is nearly the same as that of ASK1; therefore, the HTL/D14 proteins were fused to GST, increasing their molecular weight for detection on SDS-PAGE gels. […] The protein complexes were then eluted with 100 μL of elution buffer containing 50 mM Bis-Tris, pH 6.8, 500 mM NaCl, and 500 mM imidazole and subjected to SDS-PAGE analysis.
# ShHTL3 = target: ShHTL3; design: method as in PMID 27507097; settings: ITC; read-out: KD of KAR1 to ShHTL3; cited from earlier work
# Striga = test system: Striga; design: method as in doi:10.1016/j.plantsci.2009.06.007, PMID 26228149; settings: cited from earlier work
# Chain of ShHTL1 (A0A0M4AV81 entry or part of it): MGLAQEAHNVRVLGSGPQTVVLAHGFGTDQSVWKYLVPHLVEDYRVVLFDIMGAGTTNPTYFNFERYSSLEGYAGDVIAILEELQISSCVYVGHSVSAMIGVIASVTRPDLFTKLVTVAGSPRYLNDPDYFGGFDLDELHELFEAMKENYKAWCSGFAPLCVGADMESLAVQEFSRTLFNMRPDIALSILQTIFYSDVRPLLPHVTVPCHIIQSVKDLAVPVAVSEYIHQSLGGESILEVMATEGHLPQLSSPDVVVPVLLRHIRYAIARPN
# Chain of ShHTL7 T190F/C194F (A0A0M3PNA2 whole entry T190F/C194F): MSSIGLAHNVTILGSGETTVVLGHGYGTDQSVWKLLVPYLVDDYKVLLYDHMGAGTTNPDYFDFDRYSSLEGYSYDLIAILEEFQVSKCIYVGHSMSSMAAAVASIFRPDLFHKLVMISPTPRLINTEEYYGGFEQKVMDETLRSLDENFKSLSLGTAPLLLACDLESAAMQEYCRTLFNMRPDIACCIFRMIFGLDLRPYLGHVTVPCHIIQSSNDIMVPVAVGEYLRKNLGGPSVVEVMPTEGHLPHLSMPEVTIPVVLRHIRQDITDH
compound,measurement,setting,value
"Cc1c2ccocc-2oc1=O [KAR1, 3-methyl-2H-furo [2,3-c] pyran-2-one]",Kd,ShHTL1,77 ± 12 µM
same,Kd,AtHTL,129 ± 17 µM
same,KAR1 binding ability of ShHTL4,ShHTL4,no significant KAR1 binding ability
same,KAR1 binding ability of ShHTL7,ShHTL7,no significant KAR1 binding ability
same,KAR1 binding by ShHTL7 T190F/C194F,ShHTL7 T190F/C194F,able to bind to KAR1 weakly
same,ligand effect on ShHTL1-AtMAX2 interaction,[1],significant difference between the control and the presence of KAR1 or rac-GR24 was not observed
same,ligand effect on ShHTL1-ShMAX2 interaction,[2],significant difference between the control and the presence of KAR1 or rac-GR24 was not observed
same,ligand effect on AtHTL-AtMAX2 interaction,AtHTL–AtMAX2 interaction,did not interact with AtMAX2 in a KAR1-dependent manner
same,ShHTL3-ShMAX2 interaction in the presence of ligand,ShHTL3 and ShMAX2,no direct interaction with ShMAX2 in the presence of KAR1
same,Kd,ShHTL3,78 ± 3 µM
same,induction of germination of Striga,Striga,fails to induce germination of Striga

# — paper PMC6158167 (Nature Communications, 2018)
